Data: US12509407B2, “Biostimulant agent for treating plants and/or plant seed” (UNIFERX INTERNATIONAL GMBH, priority 2019, dated 2025)

Assays:
Type in all cases: in vivo
[1] = test system: sunflower hybrid SI Diamantis; test: Comparative test 2: field trial, growth of leaf area of sunflowers under heat stress; conditions: heat stress >30° C., 10 days after treatment
Experimental: (§1) The field trial was conducted in June 2019 on soils with brittle black earth. The humus content was 3.2-3.4% and the depth of the humus layer was 60-70 cm. Soil pH was 6.2-6.6, alkaline hydrolyzed nitrogen content was […] per kilogram, available phosphorus compounds content was […] per kilogram, and available potassium content was […] per kilogram. The average annual precipitation was 633 millimeters, whereas the precipitation in June was 87 millimeters. The average annual temperature was 7.4° C., the average temperature in June was 17.6° C., the average relative humidity was 76%, and the average relative humidity in June was 66%.
(§2) During the duration of the field trial, the treated plants were exposed to heat stress with daily temperatures exceeding 30° C. […]
(§3) All three groups of plants were treated once with the corresponding solution at the same times and with the same quantities. […]
(§4) To determine the biological effect of the different treatments, the leaf area of the plants (sum of leaf area from the third to the sixth leaf from the top in square meters per hectare of field area) was determined in each case before the start of the treatments and 10 days after the treatment. Thereby, the biological effect corresponds to the determined increase of the leaf area at the end of the study period in percent. […]

[2] = test system: soybean var. Niagara; test: Comparative test 3: field trial, increase in leaf area of soybean under heat stress; conditions: 10 days after treatment, third to sixth leaf from the top
Experimental: as §1, §2, §3, §4

[3] = test system: corn hybrid DKC 3511; test: Comparative test 1: field trial, growth of leaf area of corn under heat stress; conditions: corn DKC 3511, heat stress >30° C., 10 days after single spray treatment, 1.15 liters protein hydrolysate and/or 0.68 kilograms glycine betaine per hectare
Experimental: In a first field trial, the effect of the biostimulant agent according to the invention on the Growth of the leaf area of the corn hybrid DKC 3511 under heat stress was investigated. For comparison, the corresponding effect of the individual components protein hydrolysate and betaine was tested in parallel, each in the same amounts as contained in the biostimulant agent.
The field trial was conducted in June 2019 on soils with brittle black earth. The humus content was 3.2-3.4% and the depth of the humus layer was 60-70 cm. Soil pH was 6.2-6.6, alkaline hydrolyzed nitrogen content was […] per kilogram, available phosphorus compounds content was […] per kilogram, and available potassium content was 120-130 grams per kilogram. […]
as §3
To determine the biological effect of the different treatments, the leaf area of the plants (sum of leaf area from the third to the sixth leaf from the top in square meters per hectare of field area) was determined in each case before the start of the treatments and 10 days after the treatment. Thereby, the biological effect corresponds to the determined increase of the leaf area at the end of the study period in percent.

C[N+](C)(C)CC(=O)O [betaine, glycine betaine]
increase in leaf area (biological effect) [1]: no increase in leaf area was observed at all | increase in leaf area (biological effect) [2]: no increase in leaf area was observed at all | increase in leaf area (biological effect) [3]: 0.2%
